# Columns and labels:
# [1] = target: Mast/stem cell growth factor receptor Kit (Homo sapiens) (UniProt P10721); assay: Inhibition of recombinant human c-Kit expressed in insect High-5 cells assessed as remaining activity at 10 uM preincubated for 15 mins followed by poly(Glu:Tyr) substrate addition for 30 mins in presence of [gamma-32P]ATP by […] assay; conditions: BTI-TN-5B1-4
# [2] = target: Mitogen-activated protein kinase 14 (Homo sapiens) (UniProt Q16539); assay: Inhibition of human SAPK2a assessed as remaining activity at 10 uM in presence of [gamma-32P]ATP by […] assay
# [3] = target: Tyrosine-protein kinase JAK2 (Homo sapiens) (UniProt O60674); assay: Inhibition of recombinant human JAK2 expressed in insect cells assessed as remaining activity at 10 uM preincubated for 15 mins followed by poly(Glu:Tyr) substrate addition for 30 mins in presence of [gamma-32P]ATP by […] assay
# Chain of Tyrosine-protein kinase JAK2 (Homo sapiens) (O60674 whole entry): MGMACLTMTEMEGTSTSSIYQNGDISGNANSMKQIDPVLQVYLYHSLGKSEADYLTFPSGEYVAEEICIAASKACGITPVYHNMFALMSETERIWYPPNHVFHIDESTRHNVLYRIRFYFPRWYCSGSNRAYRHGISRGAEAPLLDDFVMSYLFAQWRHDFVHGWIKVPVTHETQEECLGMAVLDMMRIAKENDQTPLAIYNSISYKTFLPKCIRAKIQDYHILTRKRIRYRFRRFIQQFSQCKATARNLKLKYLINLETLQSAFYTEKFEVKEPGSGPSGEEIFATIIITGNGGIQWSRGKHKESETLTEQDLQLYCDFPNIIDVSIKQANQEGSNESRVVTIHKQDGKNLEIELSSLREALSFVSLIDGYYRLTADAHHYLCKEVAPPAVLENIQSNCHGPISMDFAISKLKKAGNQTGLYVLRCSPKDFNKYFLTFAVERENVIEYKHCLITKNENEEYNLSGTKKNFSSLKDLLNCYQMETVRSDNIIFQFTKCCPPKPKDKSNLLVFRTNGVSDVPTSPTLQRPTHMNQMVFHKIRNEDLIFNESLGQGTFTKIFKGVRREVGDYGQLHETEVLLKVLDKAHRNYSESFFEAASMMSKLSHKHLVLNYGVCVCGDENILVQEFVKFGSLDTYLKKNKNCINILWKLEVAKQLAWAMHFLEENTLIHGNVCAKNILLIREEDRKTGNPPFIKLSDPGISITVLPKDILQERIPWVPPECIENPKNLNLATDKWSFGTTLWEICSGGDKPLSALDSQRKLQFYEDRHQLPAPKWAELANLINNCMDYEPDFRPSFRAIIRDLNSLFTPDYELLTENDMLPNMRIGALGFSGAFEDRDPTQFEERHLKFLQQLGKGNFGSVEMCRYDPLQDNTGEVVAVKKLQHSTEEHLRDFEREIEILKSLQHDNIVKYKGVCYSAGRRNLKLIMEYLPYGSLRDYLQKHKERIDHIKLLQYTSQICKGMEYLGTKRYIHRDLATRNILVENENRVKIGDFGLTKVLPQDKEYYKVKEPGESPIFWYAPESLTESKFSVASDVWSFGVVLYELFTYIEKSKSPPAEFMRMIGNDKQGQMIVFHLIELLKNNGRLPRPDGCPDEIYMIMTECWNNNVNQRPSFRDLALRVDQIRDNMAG
# Chain of Mast/stem cell growth factor receptor Kit (Homo sapiens) (P10721 whole entry): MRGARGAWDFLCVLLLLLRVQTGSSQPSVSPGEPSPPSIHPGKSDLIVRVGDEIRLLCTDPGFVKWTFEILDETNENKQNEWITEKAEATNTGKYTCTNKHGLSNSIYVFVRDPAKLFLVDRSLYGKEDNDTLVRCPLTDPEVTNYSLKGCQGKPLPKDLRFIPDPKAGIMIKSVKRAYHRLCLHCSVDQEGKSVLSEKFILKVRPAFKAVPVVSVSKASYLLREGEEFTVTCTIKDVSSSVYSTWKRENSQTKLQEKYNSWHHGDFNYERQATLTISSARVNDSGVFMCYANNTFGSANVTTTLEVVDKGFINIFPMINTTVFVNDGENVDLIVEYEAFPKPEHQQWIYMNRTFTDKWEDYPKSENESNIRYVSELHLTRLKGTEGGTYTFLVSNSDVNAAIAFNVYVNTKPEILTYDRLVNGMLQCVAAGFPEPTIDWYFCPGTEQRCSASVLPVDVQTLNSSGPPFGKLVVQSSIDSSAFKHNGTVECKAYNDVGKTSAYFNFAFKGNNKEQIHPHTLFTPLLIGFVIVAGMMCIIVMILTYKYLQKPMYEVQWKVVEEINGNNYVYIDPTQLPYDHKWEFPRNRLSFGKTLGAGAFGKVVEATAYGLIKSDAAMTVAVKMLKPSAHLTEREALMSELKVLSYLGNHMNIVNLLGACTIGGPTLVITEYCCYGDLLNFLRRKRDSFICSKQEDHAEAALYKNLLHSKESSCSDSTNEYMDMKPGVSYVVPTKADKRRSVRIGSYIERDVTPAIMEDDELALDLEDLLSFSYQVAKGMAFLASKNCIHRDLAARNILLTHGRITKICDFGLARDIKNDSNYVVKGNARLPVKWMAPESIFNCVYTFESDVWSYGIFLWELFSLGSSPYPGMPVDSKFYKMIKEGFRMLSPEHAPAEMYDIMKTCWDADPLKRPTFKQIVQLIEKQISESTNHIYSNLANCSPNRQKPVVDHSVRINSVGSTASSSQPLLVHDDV
# Chain of Mitogen-activated protein kinase 14 (Homo sapiens) (Q16539 whole entry): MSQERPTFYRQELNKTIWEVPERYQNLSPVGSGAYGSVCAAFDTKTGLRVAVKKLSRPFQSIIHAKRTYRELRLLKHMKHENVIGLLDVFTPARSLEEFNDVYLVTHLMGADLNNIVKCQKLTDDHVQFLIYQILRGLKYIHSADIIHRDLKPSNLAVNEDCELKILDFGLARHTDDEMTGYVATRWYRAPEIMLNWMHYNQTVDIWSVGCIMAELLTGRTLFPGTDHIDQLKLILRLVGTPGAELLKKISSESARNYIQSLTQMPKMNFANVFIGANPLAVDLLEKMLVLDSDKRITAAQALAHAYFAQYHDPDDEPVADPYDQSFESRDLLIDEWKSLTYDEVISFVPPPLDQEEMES
smiles,measurement,setting,value
CNCCOc1ccc(-c2sc3nc(-c4cccs4)nc(NN4C(=O)C=C(C)C4=O)c3c2C)cc1.Cl,Activity,[1],75%
same,Activity,[2],92%
same,Activity,[3],99%

# Source: ChEMBL document CHEMBL3856191, “Structural modifications at the 6-position of thieno[2,3-d]pyrimidines and their effects on potency at FLT3 for treatment of acute myeloid leukemia” (Eur J Med Chem, 2016)
